Structures can show the parent of a compound that is named as a salt.

The subject of this assay is rhinocerase. The conditions noted are these: read-out: Km ^a; 0.1M Tris-HCl pH 7.4, 37°C, 7 min; 100 µg enzyme.

As for `Cc1cc(=O)oc2cc(NC(=O)[C@H](CCCNC(=N)N)NC(=O)c3ccccc3)ccc12` [Arg-AMC, Nα-benzoyl-L-arginine 7-amido-4-methylcoumarin.HCl], the Km was found to be 80 ± 2.02 µM.

Broadly, the Km is the concentration of substrate that gives half-maximal velocity.

(Values after publication PMC2837349 (PLoS ONE, 2010).)
